Measured values: patent US9464291B2, “Methods and compositions for the treatment of cancer” (University of South Alabama, priority 2012, dated 2016)
Entries after “also recorded” stand apart in the source; their conditions may differ.

Tests used:
ERCC1, XPD, XRCC1 = ERCC1, XPD, XRCC1 mRNA / protein levels in A2780-CP70 cells; type: cell-based, human; settings: A2780-CP70
OPN [1] = experiment: OPN mRNA by qRT-PCR in metastatic melanoma cell lines; type: cell-based, human; settings: MDA-MB-435
Procedure: This medium was replaced with fresh cyclopamine-containing medium after 12 h. […] RNA was assessed by real-time RT-PCR for OPN transcript levels.
Quantitative RT-PCR (qRT-PCR)-cDNA was generated using High Capacity Reverse Transcriptase Kit (Applied Biosystems, Foster City, Calif.). Real time PCR was performed using a Bio-Rad iQ5 Real-Time Detection system (Bio-Rad). All reactions were done as three independent replicates. All assays were done using the TaqMan Gene Expression Assays from Applied Biosystems. OPN (SPP1: Hs 00959010_m1) transcript levels were normalized to glyceraldehyde-3-phosphate dehydrogenase (Hs 99999905_m1) levels (δCT), which was used to calculate changes in OPN expression (2^−δδCT). […] GLI1 and SHH (Hs 00179843_m1) expressions were also similarly assessed with glyceraldehyde-3-phosphate dehydrogenase as an endogenous control. To analyze the knockdown effectiveness, “scrambled transfectants” of MDA-MB-435 was set as calibrator.

OPN [2] = experiment: OPN regulation and GLI1 localisation in osteoblastic cells hFOB and MC3T3-E1; type: cell-based
Procedure: The role of the Hedgehog pathway in regulating the expression of OPN in the two osteoblastic cell lines, hFOB and MC3T3-E1 was assessed.
Quantitative RT-PCR (qRT-PCR)-cDNA was generated using High Capacity Reverse Transcriptase Kit (Applied Biosystems, Foster City, Calif.). Real time PCR was performed using a BioRad iQ5 Real-Time Detection system (Bio-Rad, Hercules, Calif.). All reactions were done in triplicate. OPN transcript levels were normalized to GAPDH levels (dCT) which was used to calculate changes in OPN expression (2-ddCT). […] The primers used included Spp1 (OPN) (Mm 00436767_m1); Bglap (osteocalcin) (Mm 01741771_g1); IBSP (Mm 00492555_m1); PTHrP (Mm 00433057_m1); RANKL (Mm 00441906_m1); GAPDH (Mm 99999915_g1).

RAW264.7 cells [3] = experiment: Osteoclast differentiation, TRAP assay, RAW264.7; type: cell-based, murine
Procedure: Cell lines—Human metastatic breast cancer cells, MDA-MB-231, were cultured in Dulbecco's Modified Eagle's Medium (DMEM/F12; Invitrogen, Carlsbad, Calif.), supplemented with 2 mM L-glutamine, 1 mM sodium pyruvate, 0.02 mM non-essential amino acids, 5% fetal bovine serum, FBS (Atlanta Biologicals, Norcross, Ga.), without antibiotics or antimycotics (cDME/F12). SUM1315 and SUM159 cells (DiMeo, T. A., et al. (2009) Cancer Res 69, 5364-5373) (Asterand, Detroit, Mich.) were cultured in DMEM/F12 supplemented with […] insulin, 5% FBS (Atlanta Biologicals) and either 10 ng/ml EGF or 1 ng/ml hydrocortisone, without antibiotics or antimycotics. The SUM1315 cells are derived from a metastasis in a patient with infiltrating ductal carcinoma; SUM159 cells were derived from a primary breast tumor with metaplastic ccarcinoma. RAW264.7 (ATCC, TIB 71) cells, a murine pre-osteoclastic line capable of differentiation and mineralization in culture (in presence of RANKL and MCSF), were grown in DMEM with L-glutamine (ATCC, 30-2002) supplemented with 10% FBS. A 2× differentiation medium (DM) was formulated for the RAW 264.7 cells comprising RAW264.7 growth medium supplemented with 20% FBS, RANKL (100 ng/ml) and M-CSF (40 ng/ml) (Matsubara, T., et al. J Bone Miner Res 25, 1068-1076). Conditioned media was harvested from breast cancer cells and mixed in a 1:1 ratio with double strength differentiation medium to assess the effect on osteoclast differentiation. 1×DM was used as control or wherever SHH (R & D Systems, Minneapolis, Minn.) or OPN (R & D Systems) was used alone. The medium on the RAW264.7 cells was replenished every 48 hours. In order to assess the effect of secreted Hh ligands, the neutralizing 5E1 antibody was used (Developmental Studies Hybridoma Bank, at the University of Iowa, Iowa). The amount of 5E1 antibody used for the studies was determined following titration of the antibody with respect to its effects on osteoclast differentiation. Medium was supplemented with 5E1 (2.5 μg/ml) and was changed on alternate days until the end of the experiment. The effect of OPN on osteoclast activity was assessed by transfecting an OPN shRNA-expressing construct on day 6 post-induction of differentiation. Fresh DM was added the following day and cells were allowed to grow for another 12 hours before termination of experiment. GLI1 expression was silenced in the SUM1315 cells using shRNA targeting GLI1 into pSuperior. gfp+neo (Oligoengine, Wash., USA). […]
Osteoclast differentiation and activity assays—Tartarate-resistant acid phosphatase (TRAP) assay was conducted for RAW 264.7 following the manufacturer's protocol (Sigma, St. Louis, Mo.). […] The percentage of area resorbed was calculated using the NIS-Elements BR. […]

OPN promoter = OPN promoter luciferase reporter assay in melanoma cell lines; type: cell-based, human; settings: MDA-MB-435, MCC012A, MCC012F
Procedure: Empty pGL3 vector was used as control. Hedgehog ligands were added to the well 6 h prior to harvesting the cells (approximately 33 hr of initiation of transfection) for assay. Readings were normalized to total protein content. Each parameter was studied in triplicate and the experiment repeated at least 3 times. The data are represented as percent luciferase activity, which was derived as a percent of the relative light units in treated groups compared with the untreated groups.

RAW264.7 cells [4] = experiment: Osteoclast resorption activity, OAAS plates; type: cell-based, murine; settings: DM supplemented with SHH (100 nM) or OPN (100 ng/ml)
Procedure: Osteoclast differentiation and activity assays—Tartarate-resistant acid phosphatase (TRAP) assay was conducted for RAW 264.7 following the manufacturer's protocol (Sigma, St. Louis, Mo.). This assay was indicative of the extent of differentiation. OAAS plates (Osteogenic Core Technologies, Choongnam, Republic of Korea) were utilized to measure osteoclastic activity. RAW 264.7 cells (25×103) were inoculated in 48-well plates. Cells were treated with serum-free conditioned media from breast cancer cells or 100 nM SHH or 100 ng/ml OPN on the following day. Media was changed every two days and the experiments were terminated either on day 6 (day 7 for knockdown experiments, with transfections being done on the sixth day). At the completion, cells were detached with 5% sodium hypochlorite and the wells were observed under a Nikon Eclipse TS 100 microscope at 10× magnification. […] The percentage of area resorbed was calculated using the NIS-Elements BR. 3.1 software.

| Compound | ERCC1, XPD, XRCC1 mRNA upregulation over baseline (ERCC1, XPD, XRCC1; IC50 cyclopamine 24 hours, then 30 μM cisplatin 1 hour (data not shown)) | time of highest ERCC1, XPD, XRCC1 mRNA levels after cisplatin exposure (ERCC1, XPD, XRCC1; cyclopamine pretreatment vs cisplatin alone) [h] | ERCC1, XPD, XRCC1 mRNA levels after agent alone (ERCC1, XPD, XRCC1; levels associated with 50% cell killing, 6-72 hr) | OPN mRNA levels (OPN [1]; MCC012A, MCC012F, cyclopamine 24 h) | OPN transcript levels (OPN [2]; hFOB / pre-osteoblasts, cyclopamine) | GLI1 subcellular localisation (OPN [2]; hFOB, cyclopamine 20 μM, 24 h) | osteoclast differentiation into TRAP-positive, multinucleate osteoclasts (RAW264.7 cells [3]; DM + cyclopamine 20 μM) | ability of MDA-MB-435 conditioned medium to induce osteoclast differentiation (RAW264.7 cells [3]; tumor cells treated with cyclopamine) | rescue of OPN transcript levels from cyclopamine inhibition (OPN [1]; cyclopamine 20 μM, recombinant SHH 100 nM) | OPN promoter activity (OPN promoter) | OPN promoter activity (OPN [2]; hFOB and MC3T3) | numbers of TRAP stained multinucleate cells (RAW264.7 cells [3]; DM supplemented with SHH (100 nM) or OPN (100 ng/ml) vs DM alone) | osteoclast activity (area resorbed) (RAW264.7 cells [4]) |
| --- | --- | --- | --- | --- | --- | --- | --- | --- | --- | --- | --- | --- | --- |
| CC1=C2C[C@H]3[C@@H](CC=C4C[C@@H](O)CC[C@@]43C)[C@@H]2CC[C@]12O[C@@H]1C[C@H](C)CN[C@H]1[C@H]2C [cyclopamine] | approximately 2 fold | 24 | no increase; also recorded: no detected effect | decreases the levels of OPN mRNA | decreases OPN mRNA levels; also recorded: inhibited the transcription of OPN; also recorded: reduction in the levels of OPN transcript levels | keeps GLI1 sequestered in the cytosolic compartment | significantly (p<0.0001) reduced the ability of DM to elicit differentiation | significant reduction in this ability | – | – | – | – | – |
| SHH: recombinant Sonic hedgehog ligand (R & D Systems) | – | – | – | – | – | – | – | – | reverse and rescue the inhibitory effects of cyclopamine | up-regulated the promoter activity of OPN | stimulated the promoter of OPN; also recorded: upregulation in OPN promoter activity | significant (p<0.005) increase | notably enhances (p<0.001) osteoclast activity |
